Assay results taken from patent US20120003177A1 (priority 2008, published 2012).
Entries after “also recorded” stand apart in the source; their conditions may differ. Read-outs that look alike come from different tables or passages of the source.

Assays:
[1] = cited from earlier work
[2] = tested on: DU145 prostate carcinoma, A549 lung carcinoma, and HT29 colon carcinoma; conditions: read-out: IC50 (50% inhibitory concentration); variety of cancer cell lines; cited from earlier work
[3] = PBS at pH 7.2; cited from earlier work
[4] = tested on: SKOV-3 human ovarian cancer cell line; assay: MTT cytotoxicity of polycurcumins to SKOV-3 cells (72 h treatment); conditions: for IC50: Homo sapiens
Method: The human ovarian carcinoma SKOV-3 cell line was purchased from American type culture collection (ATCC). Cells were cultured in RPMI 1640 medium supplemented with 10% fetal bovine serum (HyClone, Logan, Utah) and grown at 37° C. in a humidified atmosphere of 5% CO2 (v/v) in air. All of the experiments involving cells were performed on cells in the exponential growth phase.
The cytotoxicity of polycurcumins was determined using the standard 3-(4,5-dimethylthiazolyl-2)-2,5-diphenyltetrazolium bromide (MTT) cell proliferation kit (ATCC, Manassas, Va.) according to manufacturer's protocol. In brief, SKOV-3 cells were seeded onto 96-well plates with a density of 15,000 cells per well and incubated at 37° C. in a humidified atmosphere of 95% air and 5% CO2 for 16 h. The medium in each well was replaced with 200 μL of culture medium containing the treatments and cultured for 72 h. The medium in each well was then replaced with fresh media and the cells were incubated for another 24 h. The incubation medium was then replaced with 100 μL of fresh medium and 10 μL of MIT reagent. After 6 h, 100 μL of detergent reagent was added to each well and incubated for 18 h at room temperature in the dark until all the crystals dissolved. The absorbance intensity at 570 nm was recorded on a Bio-Rad (model 550) microplate reader. Cell viability is defined as the percent live cells compared with untreated controls.
For each polycurcumin tested, the commoners such as 3,3′-dithiodipropionic acid, pyromellitic dianhydride, tri(ethylene glycol) divinyl ether and PEG, were used as controls.

COc1cc(C=CC(=O)CC(=O)C=Cc2ccc(O)c(OC)c2)ccc1O [Curcumin, 1,7-bis-(4-hydroxy-3-methoxyphenyl)-hepta-1,6-diene-3,5-dione]
solubility of free curcumin in water, in words [1]: almost insoluble in water; also recorded: practically insoluble in water
IC50 [2]: 10 to 75 µM
half life (t1/2) [3]: less than 10 min
IC50 ([4]; SK-OV-3, read-out: IC50, curcumin equivalent dose): 21 µM
IC50 ([4]; SK-OV-3, read-out: IC50-C (IC50 in terms of curcumin-equivalent dose)): 7.8 µg/mL

C=COCCOCCOCCOC=C [tri(ethylene glycol) divinyl ether]
cytotoxicity of comonomer controls against SKOV-3 cells ([4]; SKOV-3, MTT, comonomers as controls): no significant cytotoxicity

polyethylene glycol [PEG]
cytotoxicity of comonomer controls against SKOV-3 cells [4]: no significant cytotoxicity

O=C(O)CCSSCCC(=O)O [3,3′-dithiodipropionic acid]
cytotoxicity of comonomer controls against SKOV-3 cells [4]: no significant cytotoxicity

O=c1oc(=O)c2cc3c(=O)oc(=O)c3cc12 [pyromellitic dianhydride]
cytotoxicity of comonomer controls against SKOV-3 cells [4]: no significant cytotoxicity
